Data: patent US9260418B2, “Pyranyl aryl methyl benzoquinolinone M1 receptor positive allosteric modulators” (Merck Sharp & Dohme Corp., priority 2009, dated 2016)

Target: T1, acetylcholine muscarinic M1 receptor (Homo sapiens, UniProt P11229)
T1 construct: expressed in transfected cells; host or cells: CHOnfat cells (CHO), under Geneticin selection; b382 calls them CHOK1/hM1
T1 sequence (P11229 1-460): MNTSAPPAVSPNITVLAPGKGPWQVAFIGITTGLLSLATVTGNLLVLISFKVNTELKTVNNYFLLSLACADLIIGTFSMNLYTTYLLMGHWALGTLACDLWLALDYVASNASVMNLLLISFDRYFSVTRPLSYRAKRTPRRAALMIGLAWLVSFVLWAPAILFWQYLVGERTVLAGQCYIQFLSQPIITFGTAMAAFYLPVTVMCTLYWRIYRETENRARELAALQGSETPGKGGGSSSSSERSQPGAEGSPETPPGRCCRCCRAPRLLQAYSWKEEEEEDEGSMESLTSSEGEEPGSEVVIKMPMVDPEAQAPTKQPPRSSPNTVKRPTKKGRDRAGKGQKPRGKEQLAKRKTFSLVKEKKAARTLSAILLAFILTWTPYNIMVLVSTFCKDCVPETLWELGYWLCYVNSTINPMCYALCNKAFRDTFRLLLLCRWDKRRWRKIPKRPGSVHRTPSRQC
Test: muscarinic FLIPR intracellular calcium assay, potentiation of EC20 acetylcholine in CHOnfat/hM1 cells
Type: cell-based
Conditions: inflection point calculated from FLIPR values, 4 min preincubation, then EC20 acetylcholine (3 nM final), read-out: IP Value
Method: The assay studies the effect of one or several concentrations of test compounds on basal or acetylcholine-stimulated Ca^2+ levels using FLIPR.
Compounds are prepared and subjected to a preincubation period of 4 min. Thereafter, a single EC20 concentration of acetylcholine is added to each well (3 nM final). The intracellular Ca^2+ level of each sample is measured and compared to an acetylcholine control to determine any modulatory activity.
Cells: CHOnfat/hM1, hM2, hM3 or hM4 cells are plated 24 hr before the assay at a density of 18,000 cells/well (100 μL) in a 384 well plate. CHOnfat/hM1 and CHOnfat/hM3 Growth Medium: 90% DMEM (Hi Glucose); 10% HI FBS; 2 mM L-glutamine; 0.1 mM NEAA; Pen-Strep; and 1 mg/ml Geneticin, are added. For M2Gqi5CHOnfat and M4Gqi5CHOnfat cells, an additional 600 ug/ml hygromycin is added.
Equipment: 384 well plate, 120 μL addition plate; 96-well Whatman 2 ml Uniplate Incubator, 37° C., 5% CO2; Skatron EMBLA-384 Plate Washer; Multimek Pipetting System; Genesis Freedom 200 System; Mosquito System; Temo Nanolitre Pipetting System; and FLIPR^384 Fluorometric Imaging Plate Reader System are used.
Buffers. Assay Buffer: Hanks Balanced Salt Solution, with 20 mM Hepes, 2.5 mM Probenecid (Sigma P-8761) first dissolved in 1 N NaOH, 1% Bovine Serum Albumin (Sigma A-9647). Dye Loading Buffer: Assay Buffer plus 1% Fetal Bovine Serum and Fluo-4AM/Pluronic Acid Mixture. 2 mM Fluo-4AM ester stock in DMSO (Molecular Probes F-14202) Concentration of 2 μM in buffer for a final concentration of 1 μM in Assay. 20% Pluronic Acid Solution stock, with concentration of 0.04% in Buffer, 0.02% in Assay.
65 μL of 2 mM Fluo-4AM are mixed with 130 μL of 20% Pluronic Acid. The resulting solution and 650 μL FBS is added to the assay buffer for a total volume of 65 mL. Positive Controls: 4-Br-A23187: 10 mM in DMSO; final concentration 10 μM. Acetylcholine: 10 mM in water, working stock at both 20 μM and 30 μM in assay buffer, final concentration of 10 μM. This is used to check the maximum stimulation of the CHOK1/hM1 cells. 20 μM (2×) acetylcholine is added in the preincubation part of the assay, and the 30 μM (3×) stock is added in the second part. (EC20)Acetylcholine: 10 mM in water, working stock of 9 nM (3×), and final concentration in assay is 3 nM. This is used after the preincubation with test compounds. Addition of the EC20 Acetylcholine to each well with a test compound will ascertain any modulator activity. 24 wells contain 3 nM Acetylcholine alone as a control.
Screening Plate: Compounds are titrated in 96-well plates (columns 2-11), 100% DMSO, started at a concentration of 15 mM (150× stock concentration), and 3-fold serial dilutions using Genesis Freedom200 System. Four 96-well plates are combined into a 384-well plate using Mosquito Nanolitre Pipetting System by transferring 1 μl of serial diluted compounds to each well, and 1 mM acetylcholine (100× stock concentration) were added as a control. Using Temo, 49 μl assay buffer is added to each well of the 384-well plate right before assay.
In a 96-well Whatman 2 ml Uniplate, 9 nM Acetylcholine (3×) is pipetted into wells corresponding to the screening compounds, and into control wells. The 30 μM acetylcholine control (3×) is added into control wells, and the 3× agonist plate is transferred into a 384 well plate.
Cells are washed three times with 100 μL of buffer, leaving 30 μL of buffer in each well. Using Multimek, 30 μL of Dye Loading Buffer is added into each well and incubated at 37° C., 5% CO2 for up to one hr.
After 60 min, the cells are washed three times with 100 μL of buffer, leaving 30 μL of buffer in each well. The cell plate, screening plate, and agonist addition plates are placed on the platform in the FLIPR and the door closed. A signal test to check background fluorescence and basal fluorescence signal is performed. Laser intensity is adjusted if necessary. […]

| Compound | EC50 [nM] |
| --- | --- |
| O=c1c2cc(Cc3ccnc(Cl)c3)c3ccccc3c2ncn1[C@H]1CCOC[C@@H]1O [Example 15, 6-[(2-Chloropyridin-4-yl)methyl]-3-[(3R,4S)-3-hydroxytetrahydro-2H-pyran-4-yl]benzo[h]quinazolin-4(3H)-one] | 12 |
| CC(C)(O)c1ccc(Cc2cc3c(=O)n([C@H]4CCOC[C@@H]4O)cnc3c3ccccc23)cn1 [Example 11, 6-{[6-(1-Hydroxy-1-methylethyl)pyridine-3-yl]methyl}-3-[(3R,4S)-3-hydroxytetrahydro-2H-pyran-4-yl]benzo[h]quinazolin-4(3H)-one] | 76 |
| COc1ccc(Cc2cc3c(=O)n([C@H]4CCOC[C@@H]4O)cnc3c3ccccc23)cn1 [Example 7, 3-[(3R,4S)-3-Hydroxytetrahydro-2H-pyran-4-yl]-6-[(6-methoxypyridin-3-yl)methyl]benzo[h]quinazolin-4(3H)-one] | 16.8 |
| O=C(O)c1ccc(Cc2cc3c(=O)n([C@H]4CCOC[C@@H]4O)cnc3c3ccccc23)cn1 [Example 18, 5-({3-[(3R,4S)-3-Hydroxytetrahydro-2H-pyran-4-yl]4-oxo-3,4-dihydrobenzo[h]quinazolin-6-yl}methyl)pyridine-2-carboxylic acid] | 124 |
| COC(C)(C)c1ccc(Cc2cc3c(=O)n([C@H]4CCOC[C@@H]4O)cnc3c3ccccc23)cn1 [Example 20, 3-[(3R,4S)-3-Hydroxytetrahydro-2H-pyran-4-yl]-6-{[6-(1-methoxy-1-methylethyl)pyridine-3-yl]methyl}benzo[h]quinazolin-4(3H)-one] | 45 |
| O=c1c2cc(Cc3ccc(Cl)[n+]([O-])c3)c3ccccc3c2ncn1[C@H]1CCOC[C@@H]1O [Example 14, 6-[(6-Chloro-1-oxidopyridin-3-yl)methyl]-3-[(3R,4S)-3-hydroxytetrahydro-2H-pyran-4-yl]benzo[h]quinazolin-4(3H)-one] | 59 |
| Cc1ccc(Cc2cc3c(=O)n([C@H]4CCOC[C@@H]4O)cnc3c3ccccc23)cn1 [Example 3, 3-[(3R,4S)-3-Hydroxytetrahydro-2H-pyran-4-yl]-6-[(6-methylpyridin-3-yl)methyl]benzo[h]quinazolin-4(3H)-one] | 15 |
| CN(C)C(=O)c1ccc(Cc2cc3c(=O)n([C@H]4CCOC[C@@H]4O)cnc3c3ccccc23)cn1 [Example 19, 5-({3-[(3R,4S)-3-Hydroxytetrahydro-2H-pyran-4-yl]-4-oxo-3,4-dihydrobenzo[h]quinazolin-6-yl}methyl)-N,N-dimethylpyridine-2-carboxamide] | 318 |
| CSc1ccc(Cc2cc3c(=O)n([C@H]4CCOC[C@@H]4O)cnc3c3ccccc23)cn1 [Example 2, 3-[(3R,4S)-3-Hydroxytetrahydro-2H-pyran-4-yl]-6-{[(6-methylthio)pyridin-3-yl)methyl]benzo[h]quinazolin-4(3H)-one] | 14 |
| O=c1c2cc(Cc3ccc(-c4cscn4)nc3)c3ccccc3c2ncn1[C@H]1CCOC[C@@H]1O [Example 13, 3-[(3R,4S)-3-Hydroxytetrahydro-2H-pyran-4-yl]-6-{[6-(1,3-thiazol-4-yl)pyridine-3-yl]methyl}benzo[h]quinazolin-4(3H)-one] | 5.8 |

Other lines, results leading:

| EC50 [nM] | Compound |
| --- | --- |
| 120 | CC(=O)N1CC[C@H](n2cnc3c(cc(Cc4ccc(Cl)nc4)c4ccccc43)c2=O)[C@@H](O)C1 (racemic) [Example 36, rac-3-[(3R,4R)-1-acetyl-3-hydroxypiperidin-4-yl]-6-[(6-chloropyridin-3-yl)methyl]benzo[h]quinazolin-4(3H)-one] |
| 10 | O=c1c2cc(Cc3ccc(Cl)nc3)c3ccccc3c2ncn1[C@H]1CCSC[C@@H]1O [Example 33, 6-[(6-Chloropyridin-3-yl)methyl]-3-[(3R,4S)-3-hydroxytetrahydro-2H-thiopyran-4-yl]benzo[h]quinazolin-4(3H)-one] |
| 27 | O=c1c2cc(Cc3ccc(O)nc3)c3ccccc3c2ncn1[C@H]1CCOC[C@@H]1O [Example 28, 6-[(6-Hydroxypyridin-3-yl)methyl]-3-[(3R,4S)-3-hydroxytetrahydro-2H-pyran-4-yl]benzo[h]quinazolin-4(3H)-one] |
| 54 | O=c1c2cc(Cc3ccc(Cl)nc3)c3ccccc3c2ncn1[C@H]1CCNC[C@@H]1O (racemic) [Example 35, rac-6-[(6-Chloropyridin-3-yl)methyl]-3-[(3R,4R)-3-hydroxypiperidin-4-yl]benzo[h]quinazolin-4(3)H-one] |
| 77 | O=c1c2cc(Cc3ccnc(OC(F)F)c3)c3ccccc3c2ncn1[C@H]1CCOC[C@@H]1O [Example 30, 6-{[2-(Difluoromethoxy)pyridine-4-yl]methyl}-3-[(3R,4S)-3-hydroxytetrahydro-2H-pyran-4-yl]benzo[h]quinazolin-4(3H)-one] |
